Measurements reported in patent US20250177359A1, “COMPOUNDS FOR USE IN THE TREATMENT OF CANCER AND INFLAMMATORY CONDITIONS” (priority 2022, published 2025).
Read-outs that look alike come from different tables or passages of the source. Each block holds one compound with its values, some of them ahead of it.

Columns and labels:
[1] = target: T1, TNKS1 (Homo sapiens, UniProt O95271); experiment: Activity assay measuring NAD+ consumption, TNKS1; type: biochemical; conditions: Table 4
T1 sequence (O95271 1-1327): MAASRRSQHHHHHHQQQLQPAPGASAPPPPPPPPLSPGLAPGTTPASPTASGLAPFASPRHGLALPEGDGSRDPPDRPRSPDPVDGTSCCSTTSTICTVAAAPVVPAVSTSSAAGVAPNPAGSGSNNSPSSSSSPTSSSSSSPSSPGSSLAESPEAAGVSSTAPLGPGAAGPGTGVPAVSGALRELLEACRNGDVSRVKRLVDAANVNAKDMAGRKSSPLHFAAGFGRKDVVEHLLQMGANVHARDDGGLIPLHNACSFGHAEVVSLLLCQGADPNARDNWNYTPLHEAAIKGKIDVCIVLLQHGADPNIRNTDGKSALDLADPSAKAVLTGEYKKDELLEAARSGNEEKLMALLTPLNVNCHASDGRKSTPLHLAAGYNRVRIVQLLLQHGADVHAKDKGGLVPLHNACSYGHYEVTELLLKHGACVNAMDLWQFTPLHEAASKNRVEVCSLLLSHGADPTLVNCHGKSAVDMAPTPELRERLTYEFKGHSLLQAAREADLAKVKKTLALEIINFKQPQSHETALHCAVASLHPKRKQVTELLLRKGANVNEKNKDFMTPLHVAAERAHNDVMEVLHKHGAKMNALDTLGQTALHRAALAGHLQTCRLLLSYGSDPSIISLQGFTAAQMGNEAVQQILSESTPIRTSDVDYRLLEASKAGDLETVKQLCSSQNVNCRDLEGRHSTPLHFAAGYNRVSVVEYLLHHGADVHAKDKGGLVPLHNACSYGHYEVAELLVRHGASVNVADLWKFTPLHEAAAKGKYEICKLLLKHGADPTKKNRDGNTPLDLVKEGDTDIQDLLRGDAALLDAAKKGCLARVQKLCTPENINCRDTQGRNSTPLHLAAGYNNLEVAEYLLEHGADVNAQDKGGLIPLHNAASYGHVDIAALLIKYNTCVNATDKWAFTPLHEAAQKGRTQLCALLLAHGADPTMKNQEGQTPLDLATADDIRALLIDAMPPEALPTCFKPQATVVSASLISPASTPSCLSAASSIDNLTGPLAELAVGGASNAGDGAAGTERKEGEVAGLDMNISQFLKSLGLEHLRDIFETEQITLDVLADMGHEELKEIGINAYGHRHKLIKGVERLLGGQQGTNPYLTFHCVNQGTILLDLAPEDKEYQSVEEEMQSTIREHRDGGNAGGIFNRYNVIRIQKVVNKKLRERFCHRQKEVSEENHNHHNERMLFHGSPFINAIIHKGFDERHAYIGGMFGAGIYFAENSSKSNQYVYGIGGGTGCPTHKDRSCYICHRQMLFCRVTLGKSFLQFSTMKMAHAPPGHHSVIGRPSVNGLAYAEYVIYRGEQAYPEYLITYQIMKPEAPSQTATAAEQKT
Procedure: All starting materials, reagents, and solvents were purchased from common commercial suppliers and were used as such without further purification. […] Organic solutions were dried over anhydrous Na2SO4 and concentrated with rotary evaporator at low pressure. All the reactions were routinely checked by thin-layer chromatography (TLC) on silica gel 60F254 (Merck) and visualized by using UV and iodine. Flash chromatography separations were carried out on Merck silica gel 60 (mesh 230-400) or by using automated Buchi Reveleris X2-UV with column FP Ecoflex Si 12 g. Yields were of purified products and were not optimized. ^1HNMR spectra were recorded at 400 MHz (Bruker Avance DRX-400), while ^13CNMR spectra were recorded at 101 MHz (Bruker Avance DRX-400). Chemical shifts are given in ppm (δ) relative to TMS. […] Mating constant (J) are reported in Hz. The purity of the tested compounds was evaluated by HPLC analysis using Jasco LC-4000 instrument equipped with a UV-Visible Diode Array Jasco-MD4015 (Jasco Corporation, Tokyo, Japan), and XTerra MS C18 column, 5 μm×4.6 mm×150 mm (Waters Corporation, Massachusetts, USA). Chromatograms were analyzed by ChromNAV2.0 Chromatography Data System software. […] The peak retention time (ret. time) is given in minutes. […] 1-Isobutoxy-4-methoxy-2-nitrobenzene (113). Isobutyl alcohol (0.6 mL, 6.43 mmol) was added, under nitrogen atmosphere at 0° C., to a suspension of NaH (0.26 g, 6.43 mmol) in dry DMF. After 15 minutes, 1-fluoro-4-methoxy-2-nitrobenzene 112 (1 g, 5.84 mmol) was also added and the reaction mixture was stirred at 80° C. for 4 h. […] (2-Isobutoxy-5-methoxyphenyl)amine (114). Zn (1.57 g, 24 mmol) and NH4C1 (2.45 g, 40 mmol) were added to a solution of 113 (0.46 g, 2 mmol) in acetone/H2O (50 mL, ratio 5:1). The reaction mixture was stirred at 60° C. for 3 h and, then, it was filtered over celite. […] N-(2,5-diethoxyphenyl)thiourea (55). […] N-(2-isobutoxy-5-methoxyphenyl)thiourea (115). […] A solution of Br2 (0.2 mL, 3.3 mmol) in CHCl3 (5 mL) was slowly added to a suspension of 45 (0.6 g, 3.3 mmol) in CHCl3 (13 mL), at 0° C. […]

[2] = target: T2, PARP2 (Homo sapiens, UniProt Q9UGN5); experiment: biochemical; type: biochemical
T2 construct: made in house
T2 sequence (Q9UGN5 whole entry): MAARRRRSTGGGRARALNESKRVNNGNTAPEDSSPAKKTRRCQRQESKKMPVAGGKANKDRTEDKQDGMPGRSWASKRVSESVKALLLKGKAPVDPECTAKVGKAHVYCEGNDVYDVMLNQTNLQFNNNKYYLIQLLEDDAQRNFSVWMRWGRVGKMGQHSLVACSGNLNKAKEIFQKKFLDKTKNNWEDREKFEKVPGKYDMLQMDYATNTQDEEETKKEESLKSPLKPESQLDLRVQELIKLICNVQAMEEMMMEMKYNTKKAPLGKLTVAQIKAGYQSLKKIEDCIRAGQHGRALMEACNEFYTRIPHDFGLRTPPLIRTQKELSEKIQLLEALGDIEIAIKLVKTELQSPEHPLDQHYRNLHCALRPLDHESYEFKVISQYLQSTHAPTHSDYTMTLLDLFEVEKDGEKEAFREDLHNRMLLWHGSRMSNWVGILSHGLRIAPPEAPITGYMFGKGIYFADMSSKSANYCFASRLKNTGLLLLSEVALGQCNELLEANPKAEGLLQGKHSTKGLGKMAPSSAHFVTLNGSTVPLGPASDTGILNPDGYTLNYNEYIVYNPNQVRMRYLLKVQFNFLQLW
Procedure: All starting materials, reagents, and solvents were purchased from common commercial suppliers and were used as such without further purification. […] Organic solutions were dried over anhydrous Na2SO4 and concentrated with rotary evaporator at low pressure. All the reactions were routinely checked by thin-layer chromatography (TLC) on silica gel 60F254 (Merck) and visualized by using UV and iodine. Flash chromatography separations were carried out on Merck silica gel 60 (mesh 230-400) or by using automated Buchi Reveleris X2-UV with column FP Ecoflex Si 12 g. Yields were of purified products and were not optimized. ^1HNMR spectra were recorded at 400 MHz (Bruker Avance DRX-400), while ^13CNMR spectra were recorded at 101 MHz (Bruker Avance DRX-400). Chemical shifts are given in ppm (δ) relative to TMS. […] Mating constant (J) are reported in Hz. The purity of the tested compounds was evaluated by HPLC analysis using Jasco LC-4000 instrument equipped with a UV-Visible Diode Array Jasco-MD4015 (Jasco Corporation, Tokyo, Japan), and XTerra MS C18 column, 5 μm×4.6 mm×150 mm (Waters Corporation, Massachusetts, USA). Chromatograms were analyzed by ChromNAV2.0 Chromatography Data System software. […] The peak retention time (ret. time) is given in minutes. […] 1-Isobutoxy-4-methoxy-2-nitrobenzene (113). Isobutyl alcohol (0.6 mL, 6.43 mmol) was added, under nitrogen atmosphere at 0° C., to a suspension of NaH (0.26 g, 6.43 mmol) in dry DMF. After 15 minutes, 1-fluoro-4-methoxy-2-nitrobenzene 112 (1 g, 5.84 mmol) was also added and the reaction mixture was stirred at 80° C. for 4 h. […] (2-Isobutoxy-5-methoxyphenyl)amine (114). Zn (1.57 g, 24 mmol) and NH4C1 (2.45 g, 40 mmol) were added to a solution of 113 (0.46 g, 2 mmol) in acetone/H2O (50 mL, ratio 5:1). The reaction mixture was stirred at 60° C. for 3 h and, then, it was filtered over celite. […] N-(2,5-diethoxyphenyl)thiourea (55). […] N-(2-isobutoxy-5-methoxyphenyl)thiourea (115). […] A solution of Br2 (0.2 mL, 3.3 mmol) in CHCl3 (5 mL) was slowly added to a suspension of 45 (0.6 g, 3.3 mmol) in CHCl3 (13 mL), at 0° C. The reaction mixture was stirred at r.t. for 4 h and, then, a 10% solution of Na2SO3 in water was added to the mixture. […] 4,7-Diethoxy-1,3-benzothiazol-2-amine (66). […] 4-Isobutoxy-7-methoxy-1,3-benzothiazol-2-amine (116). […] Hydrazine hydrate (0.23 mL, 4.77 mmol) and CH3COOH (0.12 mL, 2.1 mmol) were added to a suspension of 56 (0.29 g, 1.59 mmol) in ethylene glycol (8 mL), and the reaction mixture was stirred for 24 h at 125° C. […] 6-Ethyl-2-hydrazino-1,3-benzothiazole (69). […] 6-Ispropyl-2-hydrazino-1,3-benzothiazole (70). […] 2-Hydrazino-4,7-dimethoxy-1,3-benzothiazole (73). […] 2-Hydrazino-5,7-dimethoxy-1,3-benzothiazole (75). […] 2-Hydrazino-4,7-Diethoxy-1,3-benzothiazole (77). […] 2-Hydrazino-5-methyl[1,3]thiazolo[5,4-b]pyridine (100). […] A solution of 67 (0.13 g, 0.65 mmol) in formic acid (5 mL) was refluxed for 10 h. The reaction mixture was then poured into ice/water and the pH was neutralized using a saturated solution of NaHCO3.

Compound: Oc1ccc2c(c1)sc1nncn12 [Compound 10]
IC50 [1]: 1600 nM | IC50 [2]: 44 nM | PARP2 pIC50 ± SEM [2]: (7.44 ± 0.12)

IC50 [1]: 2100 nM
Compound: Cc1ccc2c(c1)sc1nnc(N)n12 [Compound 22, 7-Methyl[1,2,4]triazolo[3,4-b][1,3]benzothiazol-3-amine]

Compound: COc1ccc(OC)c2c1sc1nnc(N)n12 [Compound 28, 5,8-Dimethoxy[1,2,4]triazolo[3,4-b][1,3]benzothiazol-3-amine]
IC50 [1]: 5400 nM | IC50 ([2]; NAD+ consumption assay, > less than 50% inhibition at highest concentration, >> no inhibition): 10000 nM

Compound: Nc1nnc2sc3cc(O)ccc3n12 [Compound 109, 3-Amino[1,2,4]triazolo[3,4-b][1,3]benzothiazol-7-ol]
IC50 ([2]; NAD+ consumption assay): 5 to 10 nM
